Source: patent US6274715A, “Tricyclic erythromycin derivatives” (priority 1997, dated 2001)
In brackets after ≈: the same amount, converted by molar mass.

Experiments:
Type in all cases: cell-based
[1] = tested on: PSEUDOMONAS AERUGINOSA 5007; assay: In vitro antibacterial activity, MIC, BHI agar dilution; conditions: P. aeruginosa 5007, unit assumed
[2] = tested on: STAPHYLOCOCCUS AUREUS CMX 553; assay: as above; conditions: S. aureus CMX 553, unit assumed
[3] = tested on: STAPHYLOCOCCUS EPIDERMIDIS 3519; conditions: S. epidermidis 3519; BHI agar; unit assumed
[4] = tested on: STAPHYLOCOCCUS AUREUS A5177; assay: In vitro antibacterial activity, MIC, BHI agar dilution; conditions: S. aureus A5177, unit assumed
[5] = tested on: PROVIDENCIA STUARTII CMX 640; conditions: P. stuartii CMX 640; BHI agar; unit assumed
[6] = tested on: KLEBSIELLA PNEUMONIAE ATCC 8045; assay: In vitro antibacterial activity, MIC, BHI agar dilution; conditions: K. pneumoniae ATCC 8045, unit assumed
[7] = tested on: CANDIDA ALBICANS CCH 442; assay: as above; conditions: C. albicans CCH 442, unit assumed
[8] = tested on: ESCHERICHIA COLI SS; assay: as above; conditions: E. coli SS, unit assumed
[9] = tested on: PSEUDOMONAS CEPACIA 296I; assay: as above; conditions: P. cepacia 296I, unit assumed
[10] = tested on: STAPHYLOCOCCUS AUREUS ATCC 6538P; assay: as above; conditions: S. aureus ATCC 6538P, 35-37° C., 20 to 24 hours, unit assumed
[11] = tested on: PSEUDOMONAS AERUGINOSA DPHD-5263; assay: as above; conditions: P. aeruginosa DPHD-5263, unit assumed
[12] = tested on: ESCHERICHIA COLI H560; assay: as above; conditions: E. coli H560, unit assumed
[13] = tested on: M[…] ATCC 9341; assay: as above; conditions: M. luteus ATCC 9341, unit assumed
How it was run: (§1)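 Agar dilution in BHI: plates inoculated with 1:100 dilutions of organisms (1:10 for Micrococcus and Streptococcus), incubated 20-24 h at 35-37° C, then inspected for the lowest inhibitory concentration against a drug-free growth control.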

[14] = tested on: M[…] ATCC 4698; assay: as above; conditions: M. luteus ATCC 4698, unit assumed
How it was run: as §1

[15] = tested on: EN[…] ATCC 8043; assay: as above; conditions: E. faecium ATCC 8043, unit assumed
How it was run: as §1

[16] = tested on: STR[…] 508; assay: as above; conditions: S. agalactiae CMX 508, unit assumed
How it was run: as §1

[17] = tested on: STREPTOCOCCUS PYOGENES 930; assay: as above; conditions: S. pyogenes 930, unit assumed
[18] = tested on: STREPTOCOCCUS PYOGENES PIU 2548; assay: as above; conditions: S. pyogenes PIU 2548, unit assumed
[19] = tested on: STREPTOCOCCUS PYOGENES EES61; assay: as above; conditions: S. pyogenes EES61, unit assumed
[20] = tested on: STAPHYLOCOCCUS AUREUS CMX 642A; assay: as above; conditions: S. aureus CMX 642A, unit assumed
[21] = tested on: STAPHYLOCOCCUS AUREUS 1775; assay: as above; conditions: S. aureus 1775, unit assumed
[22] = tested on: PSEUDOMONAS AERUGINOSA BMH10; assay: as above; conditions: P. aeruginosa BMH10, unit assumed
[23] = tested on: PSEUDOMONAS AERUGINOSA K799/61; assay: as above; conditions: P. aeruginosa K799/61, unit assumed
[24] = tested on: ENTEROBACTER AEROGENES ATCC 13048; assay: as above; conditions: E. aerogenes ATCC 13048, unit assumed
[25] = tested on: MYCOBACTERIUM SMEGMATIS ATCC 114; assay: as above; conditions: M. smegmatis ATCC 114, unit assumed
[26] = tested on: STREPTOCOCCUS BOVIS A-5169; assay: as above; conditions: S. bovis A-5169, unit assumed
[27] = tested on: PSEUDOMONAS AERUGINOSA DPHD-2862; assay: as above; conditions: P. aeruginosa DPHD-2862, unit assumed
[28] = tested on: PSEUDOMONAS AERUGINOSA K799/WT; assay: as above; conditions: P. aeruginosa K799/WT, unit assumed
[29] = tested on: ESCHERICHIA COLI DC-2; assay: as above; conditions: E. coli DC-2, unit assumed
[30] = tested on: ESCHERICHIA COLI KNK 437; conditions: E. coli KNK 437; BHI agar; unit assumed
[31] = tested on: ESCHERICHIA COLI JUHL; conditions: E. coli JUHL; BHI agar; unit assumed
[32] = tested on: STAPHYLOCOCCUS AUREUS NCTC10649M; assay: In vitro antibacterial activity, MIC, BHI agar dilution; conditions: S. aureus NCTC10649M, unit assumed
[33] = tested on: STAPHYLOCOCCUS AUREUS A-5278; assay: as above; conditions: S. aureus A-5278, unit assumed

Row | SMILES | MIC [1] [µg/mL] | MIC [2] [µg/mL] | MIC [3] [µg/mL] | MIC [4] [µg/mL] | MIC [5] [µg/mL] | MIC [6] [µg/mL] | MIC [7] [µg/mL] | MIC [8] [µg/mL] | MIC [9] [µg/mL] | MIC [10] [µg/mL] | MIC [11] [µg/mL] | MIC [12] [µg/mL] | MIC [13] [µg/mL] | MIC [14] [µg/mL] | MIC [15] [µg/mL] | MIC [16] [µg/mL] | MIC [17] [µg/mL] | MIC [18] [µg/mL] | MIC [19] [µg/mL] | MIC [20] [µg/mL] | further results
1 | CC[C@H]1OC(=O)[C@H](C)C(=O)[C@H](C)[C@@H](O[C@@H]2O[C@H](C)C[C@H](N(C)C)[C@H]2O)[C@](C)(OC)C[C@@H](C)C2=NCC(CN(C)Cc3ccccc3)N3C(=O)O[C@@]1(C)[C@H]3[C@H]2C (stereo partly drawn) [Example 132] | > 100 | 0.39 (≈ 0.506 µM) | 0.39 (≈ 0.506 µM) | 0.39 (≈ 0.506 µM) | > 100 | > 100 | > 100 | 0.78 (≈ 1.01 µM) | > 100 | 0.39 (≈ 0.506 µM) | > 100 | 50 (≈ 64.9 µM) | 0.05 (≈ 0.0649 µM) | 0.2 (≈ 0.259 µM) | 0.1 (≈ 0.13 µM) | 0.02 (≈ 0.0259 µM) | 50 (≈ 64.9 µM) | 0.78 (≈ 1.01 µM) | 0.02 (≈ 0.0259 µM) | 0.39 (≈ 0.506 µM) | MIC [21]: 100 µg/mL (≈ 130 µM); MIC [22]: > 100 µg/mL; MIC [23]: 1.56 µg/mL (≈ 2.02 µM); MIC [24]: > 100 µg/mL; MIC [25]: 0.78 µg/mL (≈ 1.01 µM); MIC [26]: 0.01 µg/mL (≈ 0.013 µM); MIC [27]: > 100 µg/mL; MIC [28]: 100 µg/mL (≈ 130 µM); MIC [29]: 100 µg/mL (≈ 130 µM); MIC [30]: > 100 µg/mL; MIC [31]: 100 µg/mL (≈ 130 µM); MIC [32]: 0.39 µg/mL (≈ 0.506 µM); MIC [33]: 100 µg/mL (≈ 130 µM)
2 | CCC1OC(=O)C(C)C(=O)C(C)C(OC2OC(C)CC(N(C)C)C2O)C(C)(OC)CC(C)C2=NCC(C)(CN(C)Cc3ccccc3)N3C(=O)OC1(C)C3C2C (stereo not drawn) [Example 134] | > 100 | 0.78 (≈ 0.994 µM) | 0.78 (≈ 0.994 µM) | 0.78 (≈ 0.994 µM) | > 100 | > 100 | > 100 | 1.56 (≈ 1.99 µM) | > 100 | 0.78 (≈ 0.994 µM) | > 100 | 50 (≈ 63.7 µM) | 0.05 (≈ 0.0637 µM) | 0.78 (≈ 0.994 µM) | 0.1 (≈ 0.127 µM) | 0.02 (≈ 0.0255 µM) | > 100 | 0.78 (≈ 0.994 µM) | 0.02 (≈ 0.0255 µM) | 0.78 (≈ 0.994 µM) | MIC [21]: > 100 µg/mL; MIC [22]: > 100 µg/mL; MIC [23]: 1.56 µg/mL (≈ 1.99 µM); MIC [24]: > 100 µg/mL; MIC [25]: 0.78 µg/mL (≈ 0.994 µM); MIC [26]: 0.01 µg/mL (≈ 0.0127 µM); MIC [27]: > 100 µg/mL; MIC [28]: > 100 µg/mL; MIC [29]: 100 µg/mL (≈ 127 µM); MIC [30]: > 100 µg/mL; MIC [31]: 100 µg/mL (≈ 127 µM); MIC [32]: 0.78 µg/mL (≈ 0.994 µM); MIC [33]: > 100 µg/mL
3 | CC[C@H]1OC(=O)[C@H](C)C(=O)[C@H](C)[C@@H](O[C@@H]2O[C@H](C)C[C@H](N(C)C)[C@H]2O)[C@](C)(OC)C[C@@H](C)C2=NC[C@H](COC(=O)c3ccncc3)N3C(=O)O[C@@]1(C)[C@H]3[C@H]2C [Example 138] | > 100 | 0.39 (≈ 0.505 µM) | 0.39 (≈ 0.505 µM) | 0.39 (≈ 0.505 µM) | > 100 | > 100 | > 100 | 0.78 (≈ 1.01 µM) | 100 (≈ 129 µM) | 0.39 (≈ 0.505 µM) | > 100 | 50 (≈ 64.7 µM) | 0.02 (≈ 0.0259 µM) | 0.39 (≈ 0.505 µM) | 0.1 (≈ 0.129 µM) | 0.1 (≈ 0.129 µM) | > 100 | 1.56 (≈ 2.02 µM) | 0.02 (≈ 0.0259 µM) | 0.39 (≈ 0.505 µM) | MIC [21]: > 100 µg/mL; MIC [22]: > 100 µg/mL; MIC [23]: 0.78 µg/mL (≈ 1.01 µM); MIC [24]: > 100 µg/mL; MIC [25]: 3.1 µg/mL (≈ 4.01 µM); MIC [26]: 0.01 µg/mL (≈ 0.0129 µM); MIC [27]: > 100 µg/mL; MIC [28]: > 100 µg/mL; MIC [29]: 50 µg/mL (≈ 64.7 µM); MIC [30]: 50 µg/mL (≈ 64.7 µM); MIC [31]: 50 µg/mL (≈ 64.7 µM); MIC [32]: 0.39 µg/mL (≈ 0.505 µM); MIC [33]: > 100 µg/mL
4 | CC[C@H]1OC(=O)[C@H](C)C(=O)[C@H](C)[C@@H](O[C@@H]2O[C@H](C)C[C@H](N(C)C)[C@H]2O)[C@](C)(OC)C[C@@H](C)C2=NCC(COC(=O)c3ccc([N+](=O)[O-])cc3)N3C(=O)O[C@@]1(C)[C@H]3[C@H]2C (stereo partly drawn) [Example 140] | > 100 | 0.1 (≈ 0.122 µM) | 0.1 (≈ 0.122 µM) | 0.1 (≈ 0.122 µM) | > 100 | > 100 | > 100 | 0.78 (≈ 0.955 µM) | 25 (≈ 30.6 µM) | 0.1 (≈ 0.122 µM) | > 100 | 25 (≈ 30.6 µM) | 0.01 (≈ 0.0122 µM) | 0.1 (≈ 0.122 µM) | 0.05 (≈ 0.0612 µM) | 0.02 (≈ 0.0245 µM) | 50 (≈ 61.2 µM) | 0.2 (≈ 0.245 µM) | ≤ 0.005 | 0.1 (≈ 0.122 µM) | MIC [21]: > 100 µg/mL; MIC [22]: > 100 µg/mL; MIC [23]: 0.39 µg/mL (≈ 0.477 µM); MIC [24]: > 100 µg/mL; MIC [25]: 0.39 µg/mL (≈ 0.477 µM); MIC [26]: ≤ 0.005 µg/mL; MIC [27]: > 100 µg/mL; MIC [28]: > 100 µg/mL; MIC [29]: 50 µg/mL (≈ 61.2 µM); MIC [30]: 50 µg/mL (≈ 61.2 µM); MIC [31]: 50 µg/mL (≈ 61.2 µM); MIC [32]: 0.1 µg/mL (≈ 0.122 µM); MIC [33]: > 100 µg/mL
